Among the data in publication PMC9628821, “Discovery of Chitin Deacetylase Inhibitors through Structure-Based Virtual Screening and Biological Assays” (Journal of Microbiology and Biotechnology, 2022) are Ki and Km values, retold here.

The target in data set [1] is T1, AnCDA (Aspergillus nidulans chitin deacetylase) (Aspergillus nidulans, UniProt Q5AQQ0).
T1 construct: gene cda; recombinant AnCDA (GenBank XM_677557.1), expressed in Pichia pastoris, His-tag purified
T1 sequence (Q5AQQ0 19-237): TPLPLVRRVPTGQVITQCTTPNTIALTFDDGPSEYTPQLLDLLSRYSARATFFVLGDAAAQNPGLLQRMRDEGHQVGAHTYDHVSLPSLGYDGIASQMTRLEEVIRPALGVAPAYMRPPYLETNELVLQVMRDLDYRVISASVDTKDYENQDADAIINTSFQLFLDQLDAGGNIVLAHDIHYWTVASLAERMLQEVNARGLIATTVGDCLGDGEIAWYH
The data set is described as follows: acetate release assay on (GlcNAc)[…] with purified AnCDA; Dixon plot Ki (abstract also gives IC50 […]). It counts as biochemical.

Substrate in data set [2]: CC(=O)N[C@H]1[C@H](O[C@H]2[C@H](O)[C@@H](NC(C)=O)[C@H](O[C@H]3[C@H](O)[C@@H](NC(C)=O)C(O)O[C@@H]3CO)O[C@@H]2CO)O[C@H](CO)[C@@H](O[C@@H]2O[C@H](CO)[C@@H](O[C@@H]3O[C@H](CO)[C@@H](O)[C@H](O)[C@H]3NC(C)=O)[C@H](O)[C@H]2NC(C)=O)[C@@H]1O
The data set is described as follows: enzyme kinetics (Km) by acetate release assay. The data set is classed as biochemical, Aspergillus nidulans. The following applies: Co2+ ([…] CoCl2 in assay) active site.

For orientation: Ki means the equilibrium dissociation constant of an inhibitor or competing ligand from its target. Higher therefore signals lower affinity. The molecule `Cc1ccc(-c2nc(CNC(=O)c3cccnc3Cl)no2)cc1` [J075-4187] displayed a Ki in data set [1] of 31.6 µM.

B1: AnCDA (Aspergillus nidulans chitin deacetylase) (Aspergillus nidulans FGSC A4) (protein)
chain: TPLPLVRRVPTGQVITQCTTPNTIALTFDDGPSEYTPQLLDLLSRYSARATFFVLGDAAAQNPGLLQRMRDEGHQVGAHTYDHVSLPSLGYDGIASQMTRLEEVIRPALGVAPAYMRPPYLETNELVLQVMRDLDYRVISASVDTKDYENQDADAIINTSFQLFLDQLDAGGNIVLAHDIHYWTVASLAERMLQEVNARGLIATTVGDCLGDGEIAWYH
notes: recombinant AnCDA (GenBank XM_677557.1), expressed in Pichia pastoris, His-tag purified
Broadly, the Km is the concentration of substrate that gives half-maximal velocity. Regarding B1, in data set [2], the Km was 72 µM.
